Assay results as given in patent publication US20120129875A1, “SUBSTITUTED QUINAZOLINES AS FUNGICIDES” (SYNGENTA CROP PROTECTION, LLC, priority 2009, published 2012).

System: Phaeosphaeria nodorum (Septoria nodorum)
Assay: Phaeosphaeria nodorum (Septoria nodorum) / wheat / leaf disc preventative (glume blotch)
Assay type: in vivo
Details: Parastagonospora nodorum, foliar, wheat leaf segments cv. Kanzler on agar, inoculated 2 days after application, vs untreated control, read-out: disease control
Protocol: Phaeosphaeria nodorum (Septoria nodorum)/Wheat/Leaf Disc Preventative (Glume Blotch) Wheat leaf segments cv. Kanzler are placed on agar in a multiwell plate (24-well format) and sprayed with the formulated test compound diluted in water. The leaf disks are inoculated with a spore suspension of the fungus 2 days after application. The inoculated test leaf disks are incubated at 20° C. and 75% rh under a light regime of 12 h light/12 h darkness in a climate cabinet and the activity of a compound is assessed as percent disease control compared to untreated when an appropriate level of disease damage appears in untreated check leaf disks (5-7 days after application).

Row | SMILES | pest or weed control at 200 ppm [%]
1 | Cc1ccc(-c2ncc3cccc(C)c3n2)nc1-c1ccccc1 [11/15] | ≥ 80
2 | COc1ccc(C=O)cc1-c1cccc(-c2ncc3ccccc3n2)n1 [2/125] | ≥ 80
3 | Cc1ccc(-c2cccc(-c3ncc4ccccc4n3)n2)c2ccccc12 [2/108] | ≥ 80
4 | c1ccc(Oc2cccc(-c3ncc4ccccc4n3)n2)cc1 [4/24] | ≥ 80
5 | Cc1ccc(-c2nc(C)c3cccc(Cl)c3n2)nc1-c1ccccc1 [11/14] | ≥ 80
6 | C(=C/c1cccc(-c2ncc3ccccc3n2)n1)/c1ccccc1 [10/21] | ≥ 80
7 | N#Cc1c(Cl)cccc1Cc1cccc(-c2ncc3ccccc3n2)n1 [6/33] | ≥ 80
8 | COc1ccc(Cc2cccc(-c3ncc4ccccc4n3)n2)c(Cl)c1Cl [6/23] | ≥ 80
9 | Fc1cc(F)c(-c2cccc(-c3ncc4ccccc4n3)n2)c(F)c1 [2/132] | ≥ 80
10 | CSc1cccc(-c2nc(-c3ncc4ccccc4n3)ccc2C)c1 [3/125] | ≥ 80
11 | Fc1cc(F)c(F)c(Cc2cccc(-c3ncc4ccccc4n3)n2)c1 [6/29] | ≥ 80
12 | Cc1ccc2cnc(-c3ccc(C)c(-c4ccccc4)n3)nc2c1 [11/12] | ≥ 80
13 | c1ccc(-c2ccccc2Cc2cccc(-c3ncc4ccccc4n3)n2)cc1 [6/21] | ≥ 80
14 | COc1cc(F)c(-c2cccc(-c3ncc4ccccc4n3)n2)c(F)c1 [2/131] | ≥ 80
15 | COCCOc1nc(-c2cccc(Cc3ccccc3)n2)nc2ccccc12 [12/10] | ≥ 80
16 | CC(C)Oc1nc(-c2cccc(Cc3ccccc3)n2)nc2ccccc12 [12/9] | ≥ 80
17 | COC(=O)Nc1ccc(Cc2cccc(-c3ncc4ccccc4n3)n2)cc1 [6/39] | ≥ 80
18 | COc1cc(-c2nc(-c3ncc4ccccc4n3)ccc2C)cc(OC)c1OC [3/110] | ≥ 80
19 | COc1ccccc1Cc1nc(-c2ncc3ccccc3n2)ccc1C [7/21] | ≥ 80
20 | Cc1ccc(-c2ncc3ccccc3n2)nc1-c1cccc(Cl)c1 [3/109] | ≥ 80
21 | COC(=O)c1cccc(-c2nc(-c3ncc4ccccc4n3)ccc2C)c1 [3/123] | ≥ 80
22 | COc1ccc(-c2nc(-c3ncc4ccccc4n3)ccc2OC)cc1 [14/3] | ≥ 80
23 | N#Cc1ccccc1-c1cccc(-c2ncc3ccccc3n2)n1 [2/61] | ≥ 80

Row | SMILES | pest or weed control at 200 ppm [%]
24 | c1ccc(CCc2cccc(-c3ncc4ccccc4n3)n2)cc1 [10/17] | ≥ 80
25 | CC(=O)c1ccccc1-c1nc(-c2ncc3ccccc3n2)ccc1C [3/108] | ≥ 80
26 | Cc1ccc(Cc2cccc(-c3ncc4ccccc4n3)n2)c(C)c1 [6/38] | ≥ 80
27 | Fc1ccc(Cc2cccc(-c3ncc4ccccc4n3)n2)c(Cl)c1 [6/20] | ≥ 80
28 | N#Cc1ccccc1Cc1cccc(-c2ncc3ccccc3n2)n1 [6/32] | ≥ 80
29 | COC(=O)c1ccccc1-c1cccc(-c2ncc3ccccc3n2)n1 [2/130] | ≥ 80
30 | Fc1c(Cl)cccc1Cc1cccc(-c2ncc3ccccc3n2)n1 [6/22] | ≥ 80
31 | Cc1ccc(-c2ncc3ccccc3n2)nc1-c1ccc2ccccc2c1 [3/106] | ≥ 80
32 | Cc1ccc(-c2ncc3ccccc3n2)nc1-c1c(F)cccc1F [3/105] | ≥ 80
33 | Cc1ccc(-c2ncc3ccccc3n2)nc1-c1cccc(C#N)c1 [3/132] | ≥ 80
34 | Cc1ccc(-c2ncc3ccccc3n2)nc1-c1ccc(Cl)c(F)c1Cl [3/138] | ≥ 80
35 | O=Cc1c(F)ccc(-c2cccc(-c3ncc4ccccc4n3)n2)c1F [2/110] | ≥ 80
36 | Cc1ccc(-c2nc(C)c3c(C)cccc3n2)nc1-c1ccccc1 [11/21] | ≥ 80
37 | Cc1ccc(-c2ncc3cccc(Cl)c3n2)nc1-c1ccccc1 [11/13] | ≥ 80
38 | Cc1ccc(-c2ncc3ccccc3n2)nc1-c1cccc(-c2ccccc2)c1 [3/134] | ≥ 80
39 | CCOc1ccc(-c2nc(-c3ncc4ccccc4n3)ccc2C)cc1 [3/107] | ≥ 80
40 | CC(=O)c1ccc(-c2nc(-c3ncc4ccccc4n3)ccc2C)cc1 [3/118] | ≥ 80
41 | Fc1ccc(Cc2cccc(-c3ncc4ccccc4n3)n2)c(F)c1F [6/28] | ≥ 80
42 | Cc1ccc(-c2nc(-c3ncc4ccccc4n3)ccc2C)cc1[N+](=O)[O-] [3/120] | ≥ 80
43 | O=Cc1ccc(-c2cccc(-c3ncc4ccccc4n3)n2)c(F)c1F [2/111] | ≥ 80
44 | OCc1nc(-c2cccc(Cc3ccccc3)n2)nc2ccccc12 [12/16] | ≥ 80
45 | COc1ccc2nc(-c3ccc(C)c(-c4ccccc4)n3)nc(C)c2c1 [11/20] | ≥ 80
46 | Cc1ccc(-c2ncc3ccc(Cl)cc3n2)nc1-c1ccccc1 [11/11] | ≥ 80

Row | SMILES | pest or weed control at 200 ppm [%]
47 | Cc1ccc(-c2ncc3ccccc3n2)nc1-c1ccccc1N [3/102] | ≥ 80
48 | COc1ccc(-c2cccc(-c3ncc4ccccc4n3)n2)cc1F [2/57] | ≥ 80
49 | CCc1ccc(-c2nc(-c3ncc4ccccc4n3)ccc2C)cc1 [3/131] | ≥ 80
50 | Clc1cccc(-c2cccc(-c3ncc4ccccc4n3)n2)c1Cl [2/50] | ≥ 80
51 | Fc1cccc(F)c1Cc1cccc(-c2ncc3ccccc3n2)n1 [6/26] | ≥ 80
52 | Cc1ccc(-c2ncc3ccccc3n2)nc1/C=C\c1ccccc1 [10/22] | ≥ 80
53 | CC(=O)c1cccc(-c2nc(-c3ncc4ccccc4n3)ccc2C)c1 [3/133] | ≥ 80
54 | Cc1cc(C)c(Cc2cccc(-c3ncc4ccccc4n3)n2)c(C)c1 [6/40] | ≥ 80
55 | CCCc1ccc(-c2nc(-c3ncc4ccccc4n3)ccc2C)cc1 [3/114] | ≥ 80
56 | Cc1c(F)cccc1-c1cccc(-c2ncc3ccccc3n2)n1 [2/124] | ≥ 80
57 | COc1ccc(-c2ncc3ccccc3n2)nc1-c1ccc(C)cc1 [14/2] | ≥ 80
58 | CC(=O)c1ccccc1-c1cccc(-c2ncc3ccccc3n2)n1 [2/105] | ≥ 80
59 | COC(=O)c1ccc(-c2nc(-c3ncc4ccccc4n3)ccc2C)cc1 [3/103] | ≥ 80
60 | Cc1ccccc1Cc1nc(-c2ncc3ccccc3n2)ccc1C [7/20] | ≥ 80
61 | Cc1ccc(-c2ncc3ccccc3n2)nc1/C=C/c1ccccc1 [10/23] | ≥ 80
62 | COc1cc(F)c(F)cc1-c1nc(-c2ncc3ccccc3n2)ccc1C [3/137] | ≥ 80
63 | COc1ccc2nc(-c3ccc(C)c(-c4ccccc4)n3)ncc2c1 [11/19] | ≥ 80
64 | Cc1ccc(Cc2cccc(-c3ncc4ccccc4n3)n2)cc1Cl [6/42] | ≥ 80
65 | Cc1ccc(-c2ncc3c(C)cccc3n2)nc1-c1ccccc1 [11/18] | ≥ 80
66 | Fc1ccc(Cc2cccc(-c3ncc4ccccc4n3)n2)cc1F [6/24] | ≥ 80
67 | OCc1cc(F)ccc1-c1cccc(-c2ncc3ccccc3n2)n1 [2/117] | ≥ 80
68 | COc1cc(-c2cccc(-c3ncc4ccccc4n3)n2)c(OC)cc1C [2/121] | ≥ 80
69 | Cc1ccc(C)c(Cc2cccc(-c3ncc4ccccc4n3)n2)c1 [6/41] | ≥ 80

Row | SMILES | pest or weed control at 200 ppm [%]
70 | OCc1cc2ccccc2cc1-c1cccc(-c2ncc3ccccc3n2)n1 [2/116] | ≥ 80
71 | COc1cc(F)c(F)cc1-c1cccc(-c2ncc3ccccc3n2)n1 [2/128] | ≥ 80
72 | OCc1c(-c2cccc(-c3ncc4ccccc4n3)n2)ccc2ccccc12 [2/115] | ≥ 80
73 | O=[N+]([O-])c1ccccc1-c1cccc(-c2ncc3ccccc3n2)n1 [2/112] | ≥ 80
74 | CCCc1nc(-c2cccc(C(Cc3ccccc3)c3ccccc3)n2)nc2ccccc12 (stereo not drawn) [12/13] | ≥ 80
75 | COc1ccc(-c2ncc3ccccc3n2)nc1-c1ccc(F)cc1 [14/5] | ≥ 80
76 | Cc1cc(-c2cccc(-c3ncc4ccccc4n3)n2)c(C)cc1F [2/133] | ≥ 80
77 | Fc1cccc(F)c1-c1cccc(-c2ncc3ccccc3n2)n1 [2/104] | ≥ 80
78 | COc1ccc(OC)c(Cc2cccc(-c3ncc4ccccc4n3)n2)c1 [6/43] | ≥ 80
79 | Cc1ccc(-c2ncc3ccccc3n2)nc1-c1ccc(CC#N)cc1 [3/126] | ≥ 80
80 | Cc1c(Cl)cccc1-c1cccc(-c2ncc3ccccc3n2)n1 [2/126] | ≥ 80
81 | c1cc(-c2ncc3ccccc3n2)nc(-c2cc3ccccc3c3ccccc23)c1 [2/119] | ≥ 80
82 | Cc1ccc(-c2ncc3ccccc3n2)nc1-c1cccc([N+](=O)[O-])c1 [3/104] | ≥ 80
83 | Clc1ccc(Cc2cccc(-c3ncc4ccccc4n3)n2)c(Cl)c1 [6/37] | ≥ 80
84 | CCOCc1ccc(-c2nc(-c3ncc4ccccc4n3)ccc2C)cc1 [3/142] | ≥ 80
85 | Cc1ccc(-c2ncc3ccccc3n2)nc1-c1ccc(Cl)cc1C(F)(F)F [3/129] | ≥ 80
86 | COc1ccc(-c2ncc3ccccc3n2)nc1-c1ccccc1 [14/4] | ≥ 80
87 | CCCCc1nc(-c2cccc(Cc3ccccc3)n2)nc2ccccc12 [12/5] | ≥ 80
88 | COC(=O)c1ccccc1-c1nc(-c2ncc3ccccc3n2)ccc1C [3/128] | ≥ 80
89 | Clc1ccc(Cc2cccc(-c3ncc4ccccc4n3)n2)cc1Cl [6/27] | ≥ 80
90 | N#Cc1ccc(Cc2cccc(-c3ncc4ccccc4n3)n2)cc1 [6/31] | ≥ 80
